ChEMBL document CHEMBL1201862, “PubChem BioAssay data set” (2004)
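Cells were grown in 96-well plates and exposed to each compound for 48 hours at five concentrations; endpoints were interpolated linearly between bracketing concentrations, or set to the highest concentration if not reached. GI50 = concentration required for 50% inhibition of growth.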 Active and inactive are the calls of the source. Cut-off read from the data, not from the text of the source: active = GI50 up to about 1.1 µM and inactive = higher.

Columns and labels:
Test in all cases: NCI anticancer screen, dose series, 48 h
EKVX = tested on: EKVX
ACHN = tested on: ACHN
UO-31 = tested on: UO-31
HCT-15 = tested on: HCT-15
NCI-H226 = tested on: NCI-H226
SF-539 = tested on: SF-539
COLO 205 = tested on: COLO 205
SK-MEL-2 = tested on: SK-MEL-2
HOP-92 = tested on: HOP-92
MCF7 = tested on: MCF7
IGROV-1 = tested on: IGROV-1
SNB-19 = tested on: SNB-19
SF-295 = tested on: SF-295
BT-549 = tested on: BT-549
LOX IMVI = tested on: LOX IMVI
U-251 = tested on: U-251
SK-OV-3 = tested on: SK-OV-3
MDA-MB-435 = tested on: MDA-MB-435
RXF 393 = tested on: RXF 393
MDA-N = tested on: MDA-N
UACC-62 = tested on: UACC-62
HOP-62 = tested on: HOP-62
NCI-H460 = tested on: NCI-H460
OVCAR-4 = tested on: OVCAR-4
SF-268 = tested on: SF-268
SK-MEL-28 = tested on: SK-MEL-28
T47D = tested on: T47D
UACC-257 = tested on: UACC-257
CAKI-1 = tested on: CAKI-1
OVCAR-8 = tested on: OVCAR-8
786-0 = tested on: 786-0
HT-29 = tested on: HT-29
HCT-116 = tested on: HCT-116
Hs-578T = tested on: Hs-578T
NCI-H23 = tested on: NCI-H23
HL-60 = tested on: HL-60
PC-3 = tested on: PC-3
NCI/ADR-RES = tested on: NCI/ADR-RES
RPMI-8226 = tested on: RPMI-8226
OVCAR-3 = tested on: OVCAR-3
HCC 2998 = tested on: HCC 2998
MOLT-4 = tested on: MOLT-4
OVCAR-5 = tested on: OVCAR-5
SK-MEL-5 = tested on: SK-MEL-5
DU-145 = tested on: DU-145
MDA-MB-231 = tested on: MDA-MB-231
K562 = tested on: K562
SW-620 = tested on: SW-620
A549 = tested on: A549
SR = tested on: SR
KM12 = tested on: KM12
SN12C = tested on: SN12C
TK-10 = tested on: TK-10
M14 = tested on: M14
CCRF-CEM = tested on: CCRF-CEM
NCI-H522 = tested on: NCI-H522
A498 = tested on: A498
SNB-75 = tested on: SNB-75
Malme-3M = tested on: Malme-3M

SMILES: CC(=O)c1sc2n(C)c(=O)c3ccccc3[n+]2c1C
- GI50 (EKVX): > 100 µM (inactive)
- GI50 (ACHN): > 100 µM (inactive)
- GI50 (UO-31): > 100 µM (inactive)
- GI50 (HCT-15): > 100 µM
- GI50 (NCI-H226): > 100 µM (inactive)
- GI50 (SF-539): > 100 µM (inactive)
- GI50 (COLO 205): > 100 µM (inactive)
- GI50 (SK-MEL-2): > 100 µM (inactive)
- GI50 (HOP-92): 46.5 µM (inactive)
- GI50 (MCF7): > 100 µM (inactive)
- GI50 (IGROV-1): > 100 µM (inactive)
- GI50 (SNB-19): > 100 µM (inactive)
- GI50 (SF-295): > 100 µM (inactive)
- GI50 (BT-549): > 100 µM (inactive)
- GI50 (LOX IMVI): > 100 µM (inactive)
- GI50 (U-251): > 100 µM (inactive)
- GI50 (SK-OV-3): > 100 µM (inactive)
- GI50 (MDA-MB-435): > 100 µM (inactive)
- GI50 (RXF 393): > 100 µM (inactive)
- GI50 (MDA-N): > 100 µM (inactive)
- GI50 (UACC-62): > 100 µM (inactive)
- GI50 (HOP-62): > 100 µM (inactive)
- GI50 (NCI-H460): > 100 µM (inactive)
- GI50 (OVCAR-4): > 100 µM (inactive)
- GI50 (SF-268): > 100 µM (inactive)
- GI50 (SK-MEL-28): > 100 µM (inactive)
- GI50 (T47D): > 100 µM (inactive)
- GI50 (UACC-257): > 100 µM (inactive)
- GI50 (CAKI-1): > 100 µM (inactive)
- GI50 (OVCAR-8): > 100 µM (inactive)
- GI50 (786-0): > 100 µM (inactive)
- GI50 (HT-29): > 100 µM (inactive)
- GI50 (HCT-116): > 100 µM (inactive)
- GI50 (Hs-578T): > 100 µM (inactive)
- GI50 (NCI-H23): > 100 µM (inactive)
- GI50 (HL-60): > 100 µM (inactive)
- GI50 (PC-3): > 100 µM (inactive)
- GI50 (NCI/ADR-RES): > 100 µM (inactive)
- GI50 (RPMI-8226): > 100 µM (inactive)
- GI50 (OVCAR-3): > 100 µM (inactive)
- GI50 (HCC 2998): > 100 µM (inactive)
- GI50 (MOLT-4): > 100 µM (inactive)
- GI50 (OVCAR-5): > 100 µM (inactive)
- GI50 (SK-MEL-5): > 100 µM (inactive)
- GI50 (DU-145): > 100 µM (inactive)
- GI50 (MDA-MB-231): > 100 µM (inactive)
- GI50 (K562): > 100 µM (inactive)
- GI50 (SW-620): > 100 µM (inactive)
- GI50 (A549): > 100 µM (inactive)
- GI50 (SR): > 100 µM (inactive)
- GI50 (KM12): > 100 µM (inactive)
- GI50 (SN12C): > 100 µM (inactive)
- GI50 (TK-10): > 100 µM (inactive)
- GI50 (M14): > 100 µM (inactive)
- GI50 (CCRF-CEM): > 100 µM (inactive)
- GI50 (NCI-H522): > 100 µM (inactive)

SMILES: Cc1cc2c(c(S(=O)(=O)c3ccccc3[N+](=O)[O-])c1)NCCC2
- GI50 (EKVX): > 100 µM (inactive)
- GI50 (ACHN): 28.9 µM (inactive)
- GI50 (A498): > 100 µM (inactive)
- GI50 (SNB-75): > 100 µM (inactive)
- GI50 (UO-31): 37.4 µM (inactive)
- GI50 (HCT-15): 33.7 µM
- GI50 (NCI-H226): > 100 µM (inactive)
- GI50 (SF-539): > 100 µM (inactive)
- GI50 (COLO 205): > 100 µM (inactive)
- GI50 (SK-MEL-2): 51.4 µM (inactive)
- GI50 (MCF7): 58.6 µM (inactive)
- GI50 (IGROV-1): 95.7 µM (inactive)
- GI50 (SNB-19): > 100 µM (inactive)
- GI50 (SF-295): 55.6 µM (inactive)
- GI50 (BT-549): 19.1 µM (inactive)
- GI50 (LOX IMVI): 47.2 µM (inactive)
- GI50 (U-251): 83.9 µM (inactive)
- GI50 (SK-OV-3): > 100 µM (inactive)
- GI50 (MDA-MB-435): 25.6 µM (inactive)
- GI50 (RXF 393): > 100 µM (inactive)
- GI50 (MDA-N): 34.8 µM (inactive)
- GI50 (UACC-62): 17.8 µM (inactive)
- GI50 (HOP-62): > 100 µM (inactive)
- GI50 (NCI-H460): 66.7 µM (inactive)
- GI50 (Malme-3M): 44.8 µM (inactive)
- GI50 (OVCAR-4): 23.5 µM (inactive)
- GI50 (SF-268): 83.6 µM (inactive)
- GI50 (SK-MEL-28): 54 µM (inactive)
- GI50 (T47D): 6.44 µM (inactive)
- GI50 (OVCAR-8): > 100 µM (inactive)
- GI50 (786-0): > 100 µM (inactive)
- GI50 (HT-29): > 100 µM (inactive)
- GI50 (Hs-578T): > 100 µM (inactive)
- GI50 (NCI-H23): 59.7 µM (inactive)
- GI50 (HL-60): 26.2 µM (inactive)
- GI50 (PC-3): 27.9 µM (inactive)
- GI50 (NCI/ADR-RES): 50 µM (inactive)
- GI50 (RPMI-8226): 85.3 µM (inactive)
- GI50 (OVCAR-3): 65.2 µM (inactive)
- GI50 (HCC 2998): 91.2 µM (inactive)
- GI50 (OVCAR-5): > 100 µM (inactive)
- GI50 (SK-MEL-5): 18.7 µM (inactive)
- GI50 (DU-145): 77.1 µM (inactive)
- GI50 (MDA-MB-231): > 100 µM (inactive)
- GI50 (SW-620): > 100 µM (inactive)
- GI50 (A549): 40.3 µM (inactive)
- GI50 (SR): > 100 µM (inactive)
- GI50 (KM12): 63.8 µM (inactive)
- GI50 (SN12C): 76.4 µM (inactive)
- GI50 (TK-10): > 100 µM (inactive)
- GI50 (M14): 69.8 µM (inactive)
- GI50 (NCI-H522): 16.1 µM (inactive)

SMILES: CCCCCCCCCCCCCCCCNc1ccc2c(c1)OCCOCCOCCOCCO2
- GI50 (EKVX): 4.03 µM (inactive)
- GI50 (ACHN): 3.05 µM (inactive)
- GI50 (SNB-75): 3.92 µM (inactive)
- GI50 (UO-31): 2.77 µM (inactive)
- GI50 (HCT-15): 2.88 µM
- GI50 (NCI-H226): 1.77 µM (inactive)
- GI50 (SF-539): 2.32 µM (inactive)
- GI50 (COLO 205): 1.75 µM (inactive)
- GI50 (SK-MEL-2): 2.25 µM (inactive)
- GI50 (HOP-92): 2.37 µM (inactive)
- GI50 (MCF7): 3.61 µM (inactive)
- GI50 (IGROV-1): 2.91 µM (inactive)
- GI50 (SNB-19): 3.37 µM (inactive)
- GI50 (SF-295): 2.33 µM (inactive)
- GI50 (BT-549): 3.44 µM (inactive)
- GI50 (LOX IMVI): 2.24 µM (inactive)
- GI50 (U-251): 2.49 µM (inactive)
- GI50 (SK-OV-3): 3.4 µM (inactive)
- GI50 (MDA-MB-435): 3.17 µM (inactive)
- GI50 (RXF 393): 2.3 µM (inactive)
- GI50 (MDA-N): 3.14 µM (inactive)
- GI50 (UACC-62): 2.97 µM (inactive)
- GI50 (HOP-62): 2.51 µM (inactive)
- GI50 (NCI-H460): 3.1 µM (inactive)
- GI50 (Malme-3M): 3.56 µM (inactive)
- GI50 (OVCAR-4): 4.02 µM (inactive)
- GI50 (SF-268): 3.76 µM (inactive)
- GI50 (SK-MEL-28): 6.28 µM (inactive)
- GI50 (T47D): 3.11 µM (inactive)
- GI50 (UACC-257): 2.56 µM (inactive)
- GI50 (CAKI-1): 4 µM (inactive)
- GI50 (OVCAR-8): 2.68 µM (inactive)
- GI50 (786-0): 3.64 µM (inactive)
- GI50 (HT-29): 2.75 µM (inactive)
- GI50 (HCT-116): 3.04 µM (inactive)
- GI50 (Hs-578T): 2.82 µM (inactive)
- GI50 (NCI-H23): 3.62 µM (inactive)
- GI50 (HL-60): 2.07 µM (inactive)
- GI50 (PC-3): 2.2 µM (inactive)
- GI50 (NCI/ADR-RES): 2.37 µM (inactive)
- GI50 (RPMI-8226): 1.67 µM (inactive)
- GI50 (OVCAR-3): 2.71 µM (inactive)
- GI50 (HCC 2998): 4.03 µM (inactive)
- GI50 (MOLT-4): 2.5 µM (inactive)
- GI50 (OVCAR-5): 3.61 µM (inactive)
- GI50 (SK-MEL-5): 2.25 µM (inactive)
- GI50 (DU-145): 4.24 µM (inactive)
- GI50 (MDA-MB-231): 2.91 µM (inactive)
- GI50 (K562): 4.2 µM (inactive)
- GI50 (SW-620): 3.37 µM (inactive)
- GI50 (A549): 3.78 µM (inactive)
- GI50 (SR): 3.29 µM (inactive)
- GI50 (KM12): 2.06 µM (inactive)
- GI50 (SN12C): 2.92 µM (inactive)
- GI50 (TK-10): 11.7 µM (inactive)
- GI50 (M14): 3.79 µM (inactive)
- GI50 (CCRF-CEM): 2.19 µM (inactive)
- GI50 (NCI-H522): 2.33 µM (inactive)
